According to article PMC8724216, “Biochemical and structural characterization of beta-carbonic anhydrase from the parasite Trichomonas vaginalis” (Journal of Molecular Medicine (Berlin, Germany), 2021):

Key:
[1] = target: T1, TvaCA2 (Trichomonas vaginalis, UniProt A2DLG4); test: biochemical; design: stopped-flow CO2 hydration, phenol red absorbance at 557 nm, 20 °C, pH 7.5, 15 min preincubation; details: read-out: TvaCA2 β
T1 construct: gene TVAG_268150; recombinant in E. coli BL21 Star (DE3), pBVboostFG; 6xHis-tag removed by thrombin; 185 residues; homodimer, zinc
T1 sequence (A2DLG4 1-184): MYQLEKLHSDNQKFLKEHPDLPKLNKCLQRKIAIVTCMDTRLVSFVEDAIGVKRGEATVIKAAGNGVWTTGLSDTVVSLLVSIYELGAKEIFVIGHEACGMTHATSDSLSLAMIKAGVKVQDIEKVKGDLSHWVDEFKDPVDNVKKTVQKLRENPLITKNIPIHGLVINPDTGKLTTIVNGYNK
Experimental: CA-catalyzed CO2 hydration activity was investigated with an Applied Photophysics stopped-flow instrument at 20 °C [20]. Twenty millimolar Hepes was used as buffer (pH 7.5) with 20 mM Na2SO4 (for maintaining a constant ionic strength). Phenol red of 0.2 mM was used as a pH indicator, working at a maximum absorbance of 557 nm. The initial rates of the CA-catalyzed CO2 hydration reaction were followed for 10–100 s. CO2 concentrations of 1.7–17 mM were used to determine the kinetic parameters and inhibition constants. For each inhibitor, the initial velocity was determined by using ≥ 6 traces of the initial 5–10% of the reaction. The uncatalyzed rates were determined similarly and subtracted from the total observed rates. DSMO was used at 5% to make the stock solution, from which 0.1 mM inhibitor solutions were prepared in dH2O. Subsequently, dilutions up to 0.01 nM were prepared with dH2O. Inhibitor and enzyme solutions were preincubated together (15 min, room temperature) prior to the assay to allow the formation of the enzyme–inhibitor complex. The inhibition constants were obtained by nonlinear least-squares methods using PRISM 3 and represent the means from ≥ 3 different measurements. The gene sequence of the second β-CA of T. vaginalis (TvaCA2) was retrieved from Universal Protein Resource Database UniProt (protein entry A2DLG4). An Escherichia coli expression system with a multipromoter vector, pBVboostFG (Online Resource 1), was used for the expression of TvaCA2. Gene synthesis and subcloning were performed by GeneArt (Thermo Fisher Scientific, Waltham, USA). The cells (OneShot® BL21 Star™ (DE3) Chemically Competent Cells, #C601003, Thermo Fisher Scientific, Waltham, USA) were cultured in an orbital shaker (200 rpm, 37 °C) in Luria–Bertani (LB) medium supplemented with 10 mg/mL gentamicin (1:1000). The cells were harvested via centrifugation (4 °C, 15 min, 5000 × g) after reaching an optical density of 0.4–0.6, and they were mechanically disrupted with an EmulsiFlex-C3 homogenizer (AVESTIN, Ottawa, Canada) in 50 mM Na2HPO4, 0.5 M NaCl, and 50 mM imidazole binding buffer (BB; pH 8.0), and centrifuged (13,000 × g, 15 min, 4 °C). […] After incubation, the resin was packed into a chromatography column with an EMD Millipore™ vacuum filtering flask (#XX1004705, Merck, Darmstad, Germany). The protein was eluted with 50 mM Na2HPO4, 0.5 M NaCl, and 350 mM imidazole (pH 7.0). The 6xHis-tag was removed by thrombin (#RECOMT, Sigma-Aldrich, St. Louis, USA) according to the Thrombin CleanCleave™ Kit manual (Sigma-Aldrich, St. Louis, USA) followed by Ni^2+-NTA affinity chromatography. NanoDrop One (Thermo Fisher Scientific, Waltham, USA) was used to determine the protein yield, and the quality of the purified protein was analyzed by SDS-PAGE (sodium dodecyl sulfate–polyacrylamide gel electrophoresis) using a 12% polyacrylamide gel visualized with PageBlue Protein staining solution (Thermo Fisher Scientific, #24,620, Waltham, USA). The obtained polypeptide bands of the SDS-PAGE gel were identified using tandem mass spectrometry (MS/MS; Meilahti Clinical Proteomics Core Facility, […]

[2] = target: T1, TvaCA2; test: stopped-flow CO2 hydration, phenol red; type: biochemical; details: read-out: TvaCA2 β

| SMILES | Ki [2] | Ki [1] | further results |
| --- | --- | --- | --- |
| Nc1cccc(S(N)(=O)=O)c1 [compound 01] |  |  | Ki ([1]; inhibitor): 3.93 µM |
| O=C1NS(=O)(=O)c2ccccc21 [SAC, saccharin] | > 10 µM |  |  |
| Nc1cc(C(F)(F)F)c(S(N)(=O)=O)cc1S(N)(=O)=O [compound 11, 4-amino-6-trifluoromethyl-benzene-1,3-disulfonamide] | 0.44 µM |  |  |
| Cc1ccc(-c2cc(C(F)(F)F)nn2-c2ccc(S(N)(=O)=O)cc2)cc1 [CLX, celecoxib] | > 10 µM |  |  |
| CC(=O)N=c1sc(S(N)(=O)=O)nn1C [MZA, methazolamide] | 0.39 µM |  |  |
| NS(=O)(=O)Cc1noc2ccccc12 [ZNS, zonisamide] | > 10 µM |  |  |
| Nc1ccc(S(=O)(=O)Nc2ccc(S(N)(=O)=O)cc2)cc1 [compound 22] |  | 3.9 µM |  |
| NCCc1ccc(S(N)(=O)=O)cc1 [compound 06] |  | 4.23 µM |  |
| Cc1ccc(S(N)(=O)=O)cc1 [compound 04] |  | 1.29 µM |  |
| Nc1nnc(S(N)(=O)=O)s1 [compound 13, 5-amino-1,3,4-thiadizole-2-sulfonamide] | 1.15 µM |  |  |
| NS(=O)(=O)c1ccc(N2CCCCS2(=O)=O)cc1 [SLT, sulthiame] | > 10 µM |  |  |
| CCN[C@H]1CN(CCCOC)S(=O)(=O)c2sc(S(N)(=O)=O)cc21 [BRZ] | 3.23 µM |  |  |
| NS(=O)(=O)c1ccc(C(=O)O)cc1 [compound 18] |  | 1.63 µM |  |
| NS(=O)(=O)c1cccc(S(N)(=O)=O)c1 [compound 3, 1,3-disulfamoyl benzene] | 0.446 µM |  |  |
| NS(=O)(=O)c1nnc(NS(=O)(=O)c2ccccc2)s1 [BZA] | 4.21 µM |  |  |
| CC1(C)O[C@@H]2[C@@H](CO[C@@]3(COS(N)(=O)=O)OC(C)(C)O[C@@H]23)O1 [TPM, topiramate] | > 10 µM |  |  |

| SMILES | Ki [2] | Ki [1] | further results |
| --- | --- | --- | --- |
| CCN1CCCC1CNC(=O)c1cc(S(N)(=O)=O)ccc1OC (centres unmarked) [SLP, sulpride] | > 10 µM |  |  |
| Nc1ccc(S(N)(=O)=O)cc1F [compound 07] |  | 1.29 µM |  |
| Nc1ccc(S(N)(=O)=O)cc1 [compound 02] |  | 1.29 µM |  |
| Nc1ccc(S(=O)(=O)NCc2ccc(S(N)(=O)=O)cc2)cc1 [compound 23] |  | 2.26 µM |  |
| NS(=O)(=O)c1cc2c(cc1Cl)NCNS2(=O)=O [HCT] | 3.06 µM |  |  |
| NS(=O)(=O)c1cc(Cl)cc(Cl)c1O [compound 10] |  |  | Ki ([1]; inhibitor): > 10 µM |
| Nc1nccc(Nc2ccc(S(N)(=O)=O)cc2)n1 [compound 19] |  |  | Ki ([1]; inhibitor): > 10 µM |
| Cn1nc(S(N)(=O)=O)sc1=N [compound 14] |  | 1.61 µM |  |
| Cc1onc(-c2ccccc2)c1-c1ccc(S(N)(=O)=O)cc1 [VLX, valdecoxib] | > 10 µM |  |  |
| NS(=O)(=O)c1ccc(S(=O)(=O)Nc2cccc3c(Cl)c[nH]c23)cc1 [IND, indisulam] | > 10 µM |  |  |
| Nc1cc(Cl)c(S(N)(=O)=O)cc1S(N)(=O)=O [compound 12, 4-amino-6-chloro-1,3-benzenedisulfonamide] | 0.382 µM |  |  |
| NS(=O)(=O)c1ccc(CCNS(=O)(=O)c2ccc([N+](=O)[O-])cc2CO)cc1 [compound 21] |  |  | Ki ([1]; inhibitor): 4.16 µM |
| Nc1ccc(S(=O)(=O)Nc2nnc(S(N)(=O)=O)s2)cc1 [compound 20] |  | 1.04 µM |  |
| Nc1ccc(S(N)(=O)=O)cc1Cl [compound 08] |  | 3.95 µM |  |
| NCc1ccc(S(N)(=O)=O)cc1 [compound 05] |  | 4.19 µM |  |
| Nc1ccc(S(N)(=O)=O)cc1Br [compound 9, 3-bromo-4-amino-benzenesulfonamide] | > 10 µM |  |  |
